Common to all, as to format: biochemical
For test [1], the target named is T1, mouse Abl (27-end) fusion protein (Mus musculus, UniProt P00520).
T1 construct: fusion protein corresponding to mouse Abl (27-end)
Put plainly: IC50 determination for inhibitors of Abl kinase (IMAP fluorescence polarization). The following applies: 22.8 uM ATP, 37° C., 60 minutes; read-out: IC50 Abl kinase inhibition. On the procedure: IC50 Determination for Inhibitors of Abl Kinase
Abl assay was done using fusion protein corresponding to mouse Abl (27-end) fluorescein labeled peptide substrate (with a sequence of EAIYAAPFAKKK) and quantified by Molecular Devices' IMAP fluorescence polarization technology. Compounds were tested in serially diluted concentrations in 384 well plates. Kinase reaction was performed in KAB Buffer (10 mM HEPES, pH 7, 50 mM NaCl, 5 mM MgCl2, 1 mM DTT, 0.1 mM NaVO4, 0.02% BSA), in the presence of 22.8 uM ATP, incubated at 37° C. for 60 minutes. Reaction was stopped by IMAP bead mix (at 1:400 diluted). After incubation at room temperature for 3 hours, the reaction product was analyzed on LJL Acquest (excitation 485 nm and Emission 530 nm).
(§1) FP reading (in mP) was used to calculate reaction rate. The assay was semi-automated by Tomtec Quadra workstation.
A general note: In fluorescence polarisation assays a small probe gives low polarisation when free and higher when bound to something large.

Test [2] addresses T2, Src (p60c-src) (Homo sapiens, UniProt P12931).
T2 construct: purchased UBI, Upstate Biotech, Inc
The test is described as follows: Src-Inhibitor-Assay (time-resolved fluorescence). The settings on record: ATP 5 μM; enzyme pre-incubated 15 min at 15° C. with inhibitor. The method, then:
Src-Inhibitor-Assay Parameters:
• ATP 5 μM • Peptide (Ro+Ja133-Ro): 10 μM • Ja133-Ro 196 nM • Ro 9.8 μM • PT66 230 ng/ml • Assay buffer: 4 mM MgCl2 • 2 mM TCEP • 50 mM HEPES • 0.1% Tween 20 • pH 7.3 • Enzyme: 2.5 U/ml • Inhibitor: max. 25 μM • min. 0.42 nM Material: • Eu-labelled phosphotyrosine antibody: —for Lck Cisbio Mab PT66-K, • for Src EG&G Wallac PT66 Eu-W1024 (all commercially available). • Peptides: Ro: NH2-A-E-E-E-I-Y-G-E-F-E-A-K-K-K-K-CONH2, and • Ja133-Ro: Ja133-G-Aminocaprylic acid-A-E-E-E-I-Y-G-E-F-E-A-K-K-K-K-CONH2, wherein Ja133 is LightCycler-Red 640-N-hydroxy succinimide ester; • whereby both peptides were synthesized by an optimized solid phase peptide synthesis protocol (Merrifield, Fed. Proc. Fed. Amer. Soc. Exp. Biol. 21 (1962) 412) on a Zinsser SMP350 peptide synthesizer. Shortly, the peptide was assembled on 160 mg (22.8 μmol scale) of a Rink-Linker modified polystyrene solid phase by repeatedly conjugating an twenty fold excess of amino acids each protected by temporary piperidine labile Fmoc- and permanent acid labile tert-Bu-, BOC- and O-tert-Bu-groups depending on the side chain function. The substrate sequence AEEEIYGEFEAKKKK was N-terminal additionally mounted with the spacer amino acids Aminocaprylic acid and Glycin. After cleavage of the N-terminal temporary protecting group the still attached and protected peptide was labeled with a 1.5 fold amount of LightCycler-Red 640-N-hydroxy succinimide ester (purchased from Roche Diagnostics GmbH) and triethylamine. After 3 hrs. the resin was washed with Dimethylformamide and Isopropanol until the eluates of the blue resin got colourless. […] The substrate was finally isolated by a preparative reverse phase HPLC purification. The purification yielded 12.2 mg RP-HPLC single peak pure blue material (lyophilisate). The identity was proven by MALDI mass spectroscopy [2720.0]. • Enzymes: Upstate Lck (p56^lck, active), Upstate Src (p60^c-src, partially purified) were purchased from UBI, Upstate Biotech, Inc. Time-resolved Fluorescence Assay: Reader: Perkin Elmer, Wallac Viktor 1420-040 multilabel counter; Liquid handling system: Beckman Coulter, Biomek 2000.
ATP, Tween™ 20, 4-(2-hydroxyethyl)-1-piperazineethanesulfonic acid (HEPES) were purchased from Roche Molecular Biochemicals, MgCl2 and MnCl2 were purchased from Merck Eurolab, Tris(2-carboxyethyl)phosphine hydrochloride (TCEP) was purchased from Pierce, 384 Well low volume fluorescence plates was purchased from Falcon.
At first the enzyme is pre-incubated for 15 min. at 15° C. in aqueous solution with corresponding amounts of inhibitors according to this invention. Then the phosphorylation reaction is started by adding a reaction mixture, containing ATP, Peptide and PT66, and subsequent shaking. The proceeding of this reaction is immediately monitored using time resolved fluorescence spectroscopy in a suitable well plate reader.
The IC50-values can be obtained from the reaction rates by using a non-linear curve fit (XLfit software (ID Business Solution Ltd., Guilford, Surrey, UK)).

For test [3], the target named is human recombinant PDGFR beta (Homo sapiens, UniProt P09619). Put plainly: IC50 determination for inhibitors of PDGFR kinase (IMAP fluorescence polarization). The settings on record: 48 uM ATP, room temperature, 60 minutes; read-out: IC50 PDGFR kinase inhibition. The method, then:
IC50 Determination for Inhibitors of PDGFR Kinase Assay Principle
PDGFR assay was carried out with human recombinant PDGFR beta, fluorescein labeled peptide substrate (with a peptide sequence of ALTSNQEYLDLSMPL) and test compounds (in serial dilution) using 384-well plates. Kinase reaction was performed in MOPS buffer (20 mM MOPS pH 7.1, 5 mM Sodium Acetate, 6.25 mM MgCl2, 0.5 mM EDTA, 1 mM DTT, 0.04 mM NaVO4, 0.02% BSA), in the presence of 48 uM ATP, incubated at room temperature for 60 minutes. Reaction was stopped by IMAP Bead Binding System (Molecular Devices). After incubation at room temperature for 2 hours, the reaction product was analyzed on LJL Acquest.
as §1

T2 sequence (P12931 whole entry): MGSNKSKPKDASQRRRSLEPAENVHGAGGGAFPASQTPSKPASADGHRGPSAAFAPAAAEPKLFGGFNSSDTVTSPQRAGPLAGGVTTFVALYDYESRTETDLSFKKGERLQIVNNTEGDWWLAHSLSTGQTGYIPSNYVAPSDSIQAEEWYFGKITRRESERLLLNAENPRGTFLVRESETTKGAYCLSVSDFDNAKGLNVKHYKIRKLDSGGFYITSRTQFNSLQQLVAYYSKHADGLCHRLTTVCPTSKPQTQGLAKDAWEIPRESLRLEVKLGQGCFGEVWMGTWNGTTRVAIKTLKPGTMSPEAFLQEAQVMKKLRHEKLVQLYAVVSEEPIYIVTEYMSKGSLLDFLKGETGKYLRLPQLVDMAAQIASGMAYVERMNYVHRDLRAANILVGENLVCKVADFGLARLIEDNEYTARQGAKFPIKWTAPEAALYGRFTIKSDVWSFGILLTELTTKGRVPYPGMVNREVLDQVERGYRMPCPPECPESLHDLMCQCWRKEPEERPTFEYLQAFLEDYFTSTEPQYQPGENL
Chain of human recombinant PDGFR beta (P09619 33-1106): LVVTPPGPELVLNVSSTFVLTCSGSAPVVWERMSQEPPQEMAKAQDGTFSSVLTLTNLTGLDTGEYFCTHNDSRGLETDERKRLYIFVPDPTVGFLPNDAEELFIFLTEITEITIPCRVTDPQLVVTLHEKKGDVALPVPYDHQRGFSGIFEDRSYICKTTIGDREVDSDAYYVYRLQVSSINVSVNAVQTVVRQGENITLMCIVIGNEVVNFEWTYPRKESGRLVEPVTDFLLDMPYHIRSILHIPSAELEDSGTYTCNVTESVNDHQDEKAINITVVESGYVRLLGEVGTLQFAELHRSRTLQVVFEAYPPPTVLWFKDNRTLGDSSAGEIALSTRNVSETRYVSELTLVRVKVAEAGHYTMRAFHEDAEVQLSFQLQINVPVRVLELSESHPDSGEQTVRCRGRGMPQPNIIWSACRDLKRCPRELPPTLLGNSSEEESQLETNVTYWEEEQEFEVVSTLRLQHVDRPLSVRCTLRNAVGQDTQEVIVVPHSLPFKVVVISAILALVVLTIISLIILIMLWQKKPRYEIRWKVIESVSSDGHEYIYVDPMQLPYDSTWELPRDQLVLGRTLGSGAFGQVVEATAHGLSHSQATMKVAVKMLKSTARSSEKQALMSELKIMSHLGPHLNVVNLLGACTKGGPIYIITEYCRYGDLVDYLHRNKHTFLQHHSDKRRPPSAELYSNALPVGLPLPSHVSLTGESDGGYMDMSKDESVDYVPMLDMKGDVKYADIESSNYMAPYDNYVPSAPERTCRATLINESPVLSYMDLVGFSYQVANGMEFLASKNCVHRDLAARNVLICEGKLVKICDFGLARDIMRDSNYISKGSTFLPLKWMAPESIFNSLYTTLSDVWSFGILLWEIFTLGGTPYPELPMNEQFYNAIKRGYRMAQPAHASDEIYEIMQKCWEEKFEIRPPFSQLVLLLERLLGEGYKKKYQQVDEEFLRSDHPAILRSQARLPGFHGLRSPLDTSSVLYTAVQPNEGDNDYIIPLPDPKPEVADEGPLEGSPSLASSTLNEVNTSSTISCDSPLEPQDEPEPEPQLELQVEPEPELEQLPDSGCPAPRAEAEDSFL
T1 sequence (P00520 27-1123 limits assumed): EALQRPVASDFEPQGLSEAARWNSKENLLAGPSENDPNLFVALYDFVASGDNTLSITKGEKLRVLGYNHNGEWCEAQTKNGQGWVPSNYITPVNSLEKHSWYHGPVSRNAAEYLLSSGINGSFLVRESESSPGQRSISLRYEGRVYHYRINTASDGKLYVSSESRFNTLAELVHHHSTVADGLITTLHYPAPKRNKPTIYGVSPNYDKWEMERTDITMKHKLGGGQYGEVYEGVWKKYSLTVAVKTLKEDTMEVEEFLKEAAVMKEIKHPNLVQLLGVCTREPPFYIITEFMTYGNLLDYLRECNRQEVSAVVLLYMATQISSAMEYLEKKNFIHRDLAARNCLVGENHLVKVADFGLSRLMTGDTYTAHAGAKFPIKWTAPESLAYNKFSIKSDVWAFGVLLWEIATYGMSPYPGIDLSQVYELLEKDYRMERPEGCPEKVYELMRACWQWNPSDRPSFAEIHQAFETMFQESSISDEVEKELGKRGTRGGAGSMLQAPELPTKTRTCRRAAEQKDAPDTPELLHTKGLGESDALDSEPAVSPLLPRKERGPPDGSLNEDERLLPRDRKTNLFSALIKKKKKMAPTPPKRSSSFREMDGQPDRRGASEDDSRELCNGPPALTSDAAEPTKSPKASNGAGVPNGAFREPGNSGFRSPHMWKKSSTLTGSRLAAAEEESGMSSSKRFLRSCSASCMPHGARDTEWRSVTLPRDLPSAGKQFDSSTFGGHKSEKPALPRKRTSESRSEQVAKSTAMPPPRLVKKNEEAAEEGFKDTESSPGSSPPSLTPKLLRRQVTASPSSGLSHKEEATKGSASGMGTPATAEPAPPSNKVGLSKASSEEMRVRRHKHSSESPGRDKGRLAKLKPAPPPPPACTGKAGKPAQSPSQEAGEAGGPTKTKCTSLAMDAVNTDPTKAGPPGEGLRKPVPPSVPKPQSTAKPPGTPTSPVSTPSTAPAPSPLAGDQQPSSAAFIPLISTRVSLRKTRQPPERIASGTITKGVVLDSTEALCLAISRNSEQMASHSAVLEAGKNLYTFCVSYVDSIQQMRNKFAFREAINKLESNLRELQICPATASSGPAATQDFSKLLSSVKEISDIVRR

For orientation: IC50 means the midpoint of a concentration-inhibition curve. `Cc1ccccc1-c1cc2cnc(Nc3cccc([S+](C)[O-])c3)nc2c(=O)n1C` (stereo not shown) [Example 10, 2-(3-Methanesulfinyl-phenylamino)-7-methyl-6-o-tolyl-7H-pyrido[3,4-d]pyrimidin-8-one]: the IC50 in test [1] was 1 to 500 nM; in test [2], 1 to 500 nM; in test [3], 417 nM.
Regarding `Cc1ccccc1-c1cc2cnc(Nc3cccc([S+](C)[O-])c3)nc2c(=O)n1CC(N)=O` (stereo not shown) [Example 8, 2-[2-(3-Methanesulfinyl-phenylamino)-8-oxo-6-o-tolyl-8H-pyrido[3,4-d]pyrimidin-7-yl]-acetamide], the figures for the IC50 in test [1] and in test [2] were 214 nM and 1 to 500 nM, respectively.
On to `Cc1ccccc1-c1cc2cnc(NC(CO)CO)nc2c(=O)n1C` [Example 4, 2-(2-Hydroxy-1-hydroxymethyl-ethylamino)-7-methyl-6-o-tolyl-7H-pyrido[3,4-d]pyrimidin-8-one], for which the IC50 in test [1] fell in the range of 500 to 15000 nM; in test [2], 500 to 1500 nM.
Take `Cc1cc(Cn2c(-c3ccccc3Cl)cc3cnc(Nc4ccc(N5CCN(C)CC5)cc4)nc3c2=O)nn1C` [Example 30, 6-(2-Chloro-phenyl)-7-(1,5-dimethyl-1H-pyrazol-3-ylmethyl)-2-[4-(4-methyl-piperazin-1-yl)-phenylamino]-7H-pyrido[3,4-d]pyrimidin-8-one]: the IC50 in test [1] lay within 1 to 500 nM; in test [2], 1 to 500 nM; in test [3], 500 to 15000 nM.
Take `Cc1ccccc1-c1cc2cnc(Nc3ccc(S(=O)(=O)NCCO)cc3)nc2c(=O)n1C` [Example 6, N-(2-Hydroxy-ethyl)-4-(7-methyl-8-oxo-6-o-tolyl-7,8-dihydro-pyrido[3,4-d]pyrimidin-2-ylamino)-benzenesulfonamide]: the IC50 in test [1], in test [2] and in test [3] was 1 to 500 nM throughout.
With `COc1cccc(Cn2c(-c3ccccc3C)cc3cnc(Nc4ccc(S(=O)(=O)NCCO)cc4)nc3c2=O)c1` [Example 21, N-(2-Hydroxy-ethyl)-4-[7-(3-methoxy-benzyl)-8-oxo-6-o-tolyl-7,8-dihydro-pyrido[3,4-d]pyrimidin-2-ylamino]-benzenesulfonamide], the IC50 in test [1] and in test [2] was 1 to 500 nM each time.
With `COc1cccc(Cn2c(-c3ccccc3C)cc3cnc(Nc4ccc(N5CCN(C)CC5)cc4)nc3c2=O)c1` [Example 20, 7-(3-Methoxy-benzyl)-2-[4-(4-methyl-piperazin-1-yl)-phenylamino]-6-o-tolyl-7H-pyrido[3,4-d]pyrimidin-8-one], the figures for the IC50 in test [1], in test [2] and in test [3] were 1 to 500 nM, 1 to 500 nM and 500 to 15000 nM, respectively.
In the case of `Cc1cc(Cn2c(-c3ccccc3Cl)cc3cnc(Nc4cccc([S+](C)[O-])c4)nc3c2=O)nn1C` (stereo not shown) [Example 33, 6-(2-Chloro-phenyl)-7-(1,5-dimethyl-1H-pyrazol-3-ylmethyl)-2-(3-methanesulfinyl-phenylamino)-7H-pyrido[3,4-d]pyrimidin-8-one], the IC50 in test [1] and in test [2] was 1 to 500 nM throughout.
Consider `CCN(CC)CCOc1ccc(Nc2ncc3cc(-c4ccccc4Cl)n(Cc4cc(C)n(C)n4)c(=O)c3n2)cc1` [Example 31, 6-(2-Chloro-phenyl)-2-[4-(2-diethylamino-ethoxy)-phenylamino]-7-(1,5-dimethyl-1H-pyrazol-3-ylmethyl)-7H-pyrido[3,4-d]pyrimidin-8-one], for which the IC50 in test [1] and in test [2] was 1 to 500 nM each time.
Take `CCN(CC)CCOc1ccc(Nc2ncc3cc(-c4ccccc4C)n(C)c(=O)c3n2)cc1` [Example 7, 2-[4-(2-Diethylamino-ethoxy)-phenylamino]-7-methyl-6-o-tolyl-7H-pyrido[3,4-d]pyrimidin-8-one]: the IC50 in test [1], in test [2] and in test [3] was 1 to 500 nM in each case.
For the compound `CCN(CC)CCOc1ccc(Nc2ncc3cc(-c4ccccc4C)n(Cc4cccc(OC)c4)c(=O)c3n2)cc1` [Example 22, 2-[4-(2-Diethylamino-ethoxy)-phenylamino]-7-(3-methoxy-benzyl)-6-o-tolyl-7H-pyrido[3,4-d]pyrimidin-8-one], the IC50 in test [1] lay within 1 to 500 nM.
Regarding `COc1cccc(Cn2c(-c3ccccc3Cl)cc3cnc(Nc4ccc(S(=O)(=O)NCCO)cc4)nc3c2=O)c1` [Example 37, 4-[6-(2-Chloro-phenyl)-7-(3-methoxy-benzyl)-8-oxo-7,8-dihydro-pyrido[3,4-d]pyrimidin-2-ylamino]-N-(2-hydroxy-ethyl)-benzenesulfonamide], the IC50 in test [1] and in test [2] was 1 to 500 nM in each case.
As to `COc1cccc(Cn2c(-c3ccccc3C)cc3cnc(Nc4cccc([S+](C)[O-])c4)nc3c2=O)c1` (stereo not shown) [Example 23, 2-(3-Methanesulfinyl-phenylamino)-7-(3-methoxy-benzyl)-6-o-tolyl-7H-pyrido[3,4-d]pyrimidin-8-one], the IC50 in test [1] and in test [2] was 1 to 500 nM in each case.
In the case of `Cc1ccccc1-c1cc2cnc(NC3CCOCC3)nc2c(=O)n1C` [Example 12, 7-Methyl-2-(tetrahydro-pyran-4-ylamino)-6-o-tolyl-7H-pyrido[3,4-d]pyrimidin-8-one], the IC50 in test [1] is 500 to 15000 nM; in test [2], 687 nM.
`Cc1ccccc1-c1cc2cnc(Nc3ccc(N4CCN(C)CC4)cc3)nc2c(=O)n1C` [Example 3, 7-Methyl-2-[4-(4-methyl-piperazin-1-yl)-phenylamino]-6-o-tolyl-7H-pyrido[3,4-d]pyrimidin-8-one]: the IC50 in test [1] is 1 to 500 nM; in test [2], 1 to 500 nM; in test [3], 94 nM.
In the case of `Cc1ccccc1-c1cc2cnc(Nc3ccc(N4CCOCC4)cc3)nc2c(=O)n1C` [Example 1, 7-Methyl-2-(4-morpholin-4-yl-phenylamino)-6-o-tolyl-7H-pyrido[3,4-d]pyrimidin-8-one], the IC50 was 1 to 500 nM in test [1], 2.9 nM in test [2] and 1 to 500 nM in test [3].
For the compound `Cc1ccccc1-c1cc2cnc(Nc3ccc(S(=O)(=O)NCCO)cc3)nc2c(=O)n1CC(N)=O` [Example 5, 2-{2-[4-(2-Hydroxy-ethylsulfamoyl)-phenylamino]-8-oxo-6-o-tolyl-8H-pyrido[3,4-d]pyrimidin-7-yl}-acetamide], the IC50 was 77 nM in test [1] and 1 to 500 nM in test [2].

The values are drawn from US8058283B2, “7H-pyrido[3,4-D]pyrimidin-8-ones, their manufacture and use as protein kinase inhibitors” (Hoffmann-La Roche Inc., priority 2006, dated 2011).
